Where “and” joins values, the source holds several entries; their conditions need not be identical. Equal entries are not always repeated. Toxic doses and inconclusive results are not listed.
Test system: P388 leukemia ip, CD2F1 mice, survival T/C
Test: NCI In Vivo Anticancer Drug Screen. Data for tumor model P388 Leukemia (intraperitoneal) in CD2F1 (CDF1) mice
Details: endpoint: median survival time, higher = longer survival
Summary of the method: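 Mice carrying the transplanted tumor received test compound or vehicle. Survival was recorded in each group, and the value is the treated-group measurement divided by that of the vehicle-treated control group.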

[1] = dose: 50.0 mg/kg/injection, schedule: Q01DX009 (ip), vehicle: saline with Tween-80
[2] = dose: 100.0 mg/kg/injection, schedule: Q01DX009 (ip), vehicle: saline with Tween-80
[3] = dose: 200.0 mg/kg/injection, schedule: Q01DX009 (ip), vehicle: saline with Tween-80
[4] = dose: 12.5 mg/kg/injection, schedule: Q04DX003 (ip), vehicle: saline with Tween-80
[5] = dose: 12.5 mg/kg/injection, schedule: Q01DX005 (ip), vehicle: saline with Tween-80
[6] = dose: 25.0 mg/kg/injection, schedule: Q01DX005 (ip), vehicle: saline with Tween-80
[7] = dose: 50.0 mg/kg/injection, schedule: Q01DX005 (ip), vehicle: saline with Tween-80

## CCC1=C(NCc2ccccc2)COC1=O
dose: 50.0 mg/kg/injection, schedule: Q01DX001 (ip), vehicle: Klucel (hydroxypropylcellulose) (HPC)
  T/C: 100 % of control
dose: 100.0 mg/kg/injection, schedule: Q01DX001 (ip), vehicle: Klucel (hydroxypropylcellulose) (HPC)
  T/C: 101 % of control
dose: 200.0 mg/kg/injection, schedule: Q01DX001 (ip), vehicle: Klucel (hydroxypropylcellulose) (HPC)
  T/C: 100 % of control

## Cn1cnc([N+](=O)[O-])c1SCC(=O)O
dose: 50.0 mg/kg/injection, schedule: Q01DX009 (ip), vehicle: Klucel (hydroxypropylcellulose) (HPC)
  T/C: 108 % of control
dose: 100.0 mg/kg/injection, schedule: Q01DX009 (ip), vehicle: Klucel (hydroxypropylcellulose) (HPC)
  T/C: 122 % of control
dose: 200.0 mg/kg/injection, schedule: Q01DX009 (ip), vehicle: Klucel (hydroxypropylcellulose) (HPC)
  T/C: 96 % of control
dose: 400.0 mg/kg/injection, schedule: Q01DX009 (ip), vehicle: Klucel (hydroxypropylcellulose) (HPC)
  T/C: 103 % of control

## Cc1ccc(S(=O)(=O)NC(CC(=O)OCc2ccccc2)C(=O)OCc2ccccc2)cc1 (stereo unspecified)
[1]
  T/C: 101 % of control
[2]
  T/C: 86 % of control
[3]
  T/C: 90 % of control

## C[N+](C)(Cn1ncc2ccc([N+](=O)[O-])cc21)Cn1ncc2ccc([N+](=O)[O-])cc21
[4]
  T/C: 100 % of control
dose: 25.0 mg/kg/injection, schedule: Q04DX003 (ip), vehicle: saline with Tween-80
  T/C: 97 % of control
dose: 50.0 mg/kg/injection, schedule: Q04DX003 (ip), vehicle: saline with Tween-80
  T/C: 92 % of control
dose: 100.0 mg/kg/injection, schedule: Q04DX003 (ip), vehicle: saline with Tween-80
  T/C: 96 % of control

## COC(=O)C1CC(OC(C)=O)C(O)C(O)C1OC(C)=O.[O]=[Os]=[O] (stereo unspecified)
dose: 200.0 mg/kg/injection, schedule: Q01DX001 (ip), vehicle: saline
  T/C: 123 % of control

## O=C1C=CC(=O)c2nc3ccccc3nc21
dose: 1.56 mg/kg/injection, schedule: Q01DX009 (ip), vehicle: distilled water + Tween-80
  T/C: 87 % of control
dose: 3.12 mg/kg/injection, schedule: Q01DX009 (ip), vehicle: distilled water + Tween-80
  T/C: 103 % of control
dose: 6.25 mg/kg/injection, schedule: Q01DX009 (ip), vehicle: distilled water + Tween-80
  T/C: 105 % of control and 106 % of control

## CCCCCc1cc(/C=C2/N=C(c3ccc[nH]3)C=C2OC)[nH]c1C
dose: 1.5 mg/kg/injection, schedule: Q01DX009 (ip), vehicle: saline
  T/C: 114 % of control
dose: 3.0 mg/kg/injection, schedule: Q01DX009 (ip), vehicle: saline
  T/C: 120 % of control and 123 % of control
dose: 6.0 mg/kg/injection, schedule: Q01DX009 (ip), vehicle: saline
  T/C: 107 % of control

## COc1cc(/C=C/CO)cc(OC)c1OC1OC(CO)C(O)C(O)C1O (stereo unspecified)
dose: 10.0 mg/kg/injection, schedule: Q01DX009 (ip), vehicle: saline + alcohol
  T/C: 100 % of control
dose: 20.0 mg/kg/injection, schedule: Q01DX009 (ip), vehicle: saline + alcohol
  T/C: 110 % of control
dose: 40.0 mg/kg/injection, schedule: Q01DX009 (ip), vehicle: saline + alcohol
  T/C: 97 % of control
dose: 80.0 mg/kg/injection, schedule: Q01DX009 (ip), vehicle: saline + alcohol
  T/C: 100 % of control

## CCOc1c(N=Nc2ccc([N+](=O)[O-])cc2)c(C)nn1C(=S)SC
dose: 1.87 mg/kg/injection, schedule: Q01DX005 (ip), vehicle: Klucel (hydroxypropylcellulose) (HPC)
  T/C: 108 % of control
dose: 3.75 mg/kg/injection, schedule: Q01DX005 (ip), vehicle: Klucel (hydroxypropylcellulose) (HPC)
  T/C: 105 % of control
dose: 7.5 mg/kg/injection, schedule: Q01DX005 (ip), vehicle: Klucel (hydroxypropylcellulose) (HPC)
  T/C: 105 % of control and 89 % of control
dose: 15.0 mg/kg/injection, schedule: Q01DX005 (ip), vehicle: Klucel (hydroxypropylcellulose) (HPC)
  T/C: 97 % of control
dose: 60.0 mg/kg/injection, schedule: Q01DX005 (ip), vehicle: Klucel (hydroxypropylcellulose) (HPC)
  T/C: 90 % of control
dose: 240.0 mg/kg/injection, schedule: Q01DX005 (ip), vehicle: Klucel (hydroxypropylcellulose) (HPC)
  T/C: 87 % of control

## CC12CCC(S)CC1=CCC1C2CCC2(C)/C(=N/NC(N)=S)CCC12 (stereo unspecified)
dose: 25.0 mg/kg/injection, schedule: Q01DX009 (ip), vehicle: distilled water + Tween-80
  T/C: 105 % of control
dose: 50.0 mg/kg/injection, schedule: Q01DX009 (ip), vehicle: distilled water + Tween-80
  T/C: 100 % of control
dose: 100.0 mg/kg/injection, schedule: Q01DX009 (ip), vehicle: distilled water + Tween-80
  T/C: 105 % of control
dose: 200.0 mg/kg/injection, schedule: Q01DX009 (ip), vehicle: distilled water + Tween-80
  T/C: 98 % of control
dose: 400.0 mg/kg/injection, schedule: Q01DX009 (ip), vehicle: distilled water + Tween-80
  T/C: 107 % of control

## COc1cc(NS(C)(=O)=O)ccc1Nc1c2ccc(Cl)cc2nc2c(OC)cccc12
dose: 3.13 mg/kg/injection, schedule: Q01DX009 (ip), vehicle: saline
  T/C: 166 % of control
dose: 6.25 mg/kg/injection, schedule: Q01DX009 (ip), vehicle: saline
  T/C: 195 % of control
dose: 6.25 mg/kg/injection, schedule: Q04DX003 (ip), vehicle: saline with Tween-80
  T/C: 154 % of control
dose: 8.25 mg/kg/injection, schedule: Q04DX003 (ip), vehicle: saline with Tween-80
  T/C: 179 % of control
dose: 12.5 mg/kg/injection, schedule: Q01DX009 (ip), vehicle: saline
  T/C: 208 % of control
[4]
  T/C: 170 % of control and 204 % of control
dose: 18.75 mg/kg/injection, schedule: Q04DX003 (ip), vehicle: saline with Tween-80
  T/C: 229 % of control

## COc1ccc(Cc2c3ccccc3cc[n+]2Cc2ccccc2)cc1OC
dose: 6.25 mg/kg/injection, schedule: Q01DX005 (ip), vehicle: saline with Tween-80
  T/C: 103 % of control
[5]
  T/C: 111 % of control
[6]
  T/C: 111 % of control
[7]
  T/C: 114 % of control

## Cn1c(/C=C/CO)c(CO)c2c1C(=O)C=C(N1CC1)C2=O
dose: 1.5 mg/kg/injection, schedule: Q01DX005 (ip), vehicle: saline
  T/C: 106 % of control
dose: 3.0 mg/kg/injection, schedule: Q01DX005 (ip), vehicle: saline
  T/C: 94 % of control

## CCCCCCCCCCCCCCCCS(=O)(=O)N/N=C(/c1ccccc1Cl)N1CCOCC1
[1]
  T/C: 92 % of control
[2]
  T/C: 93 % of control
[3]
  T/C: 94 % of control

## CCN(CCC(=O)OC)Cc1ccnc2ccccc12
dose: 50.0 mg/kg/injection, schedule: Q01DX005 (ip), vehicle: saline
  T/C: 103 % of control
dose: 100.0 mg/kg/injection, schedule: Q01DX005 (ip), vehicle: saline
  T/C: 113 % of control
dose: 200.0 mg/kg/injection, schedule: Q01DX005 (ip), vehicle: saline
  T/C: 106 % of control

## CC(=O)C1C(=O)C(=O)N(c2ccccc2[N+](=O)[O-])C1=O (stereo unspecified)
[5]
  T/C: 101 % of control
[6]
  T/C: 107 % of control
[7]
  T/C: 100 % of control and 113 % of control

## S=C(N/N=C(\c1ccccc1)c1ccccn1)SCc1ccccc1
[1]
  T/C: 99 % of control
[2]
  T/C: 90 % of control
[3]
  T/C: 97 % of control

## NC(=Nc1ccccc1)Nc1ccccc1
dose: 12.5 mg/kg/injection, schedule: Q01DX009 (ip), vehicle: saline with Tween-80
  T/C: 99 % of control
dose: 25.0 mg/kg/injection, schedule: Q01DX009 (ip), vehicle: saline with Tween-80
  T/C: 104 % of control
[1]
  T/C: 102 % of control

## CCN(CCO)CCNc1ccc(C)c2sc3cc(Cl)ccc3c(=O)c12
dose: 12.5 mg/kg/injection, schedule: Q01DX005 (ip), vehicle: Klucel (hydroxypropylcellulose) (HPC)
  T/C: 104 % of control
dose: 25.0 mg/kg/injection, schedule: Q01DX005 (ip), vehicle: Klucel (hydroxypropylcellulose) (HPC)
  T/C: 104 % of control
dose: 50.0 mg/kg/injection, schedule: Q01DX005 (ip), vehicle: Klucel (hydroxypropylcellulose) (HPC)
  T/C: 101 % of control and 102 % of control
dose: 100.0 mg/kg/injection, schedule: Q01DX005 (ip), vehicle: Klucel (hydroxypropylcellulose) (HPC)
  T/C: 111 % of control

## CCOC(=O)C/[N+]([O-])=C/c1ccccc1
dose: 12.5 mg/kg/injection, schedule: Q01DX009 (ip), vehicle: other
  T/C: 100 % of control
dose: 25.0 mg/kg/injection, schedule: Q01DX009 (ip), vehicle: other
  T/C: 98 % of control
dose: 50.0 mg/kg/injection, schedule: Q01DX009 (ip), vehicle: other
  T/C: 117 % of control
dose: 100.0 mg/kg/injection, schedule: Q01DX009 (ip), vehicle: other
  T/C: 100 % of control
dose: 200.0 mg/kg/injection, schedule: Q01DX009 (ip), vehicle: other
  T/C: 100 % of control

## O=C1/C(=C/c2cccc(O)c2)COc2ccccc21
dose: 60.0 mg/kg/injection, schedule: Q01DX005 (ip), vehicle: saline with Tween-80
  T/C: 95 % of control
dose: 120.0 mg/kg/injection, schedule: Q01DX005 (ip), vehicle: saline with Tween-80
  T/C: 94 % of control
dose: 240.0 mg/kg/injection, schedule: Q01DX005 (ip), vehicle: saline with Tween-80
  T/C: 87 % of control

Reference: PubChem BioAssay AID330 (DTP/NCI, 2004)
